Measurements from publication doi:10.1101/2025.10.20.683482v1 (biorxiv, 2025).

Experiments:
MIA PaCa = assay: cells; conditions: Homo sapiens, MIA PaCa-2, 72 h, read-out: MIA PaCa
67nR = assay: cells; conditions: 72 h, read-out: 67nR
4T1 = assay: cells; conditions: Mus musculus, 4T1, 72 h, read-out: 4T1
MDA-MB 231 = assay: cells; conditions: Homo sapiens, MDA-MB-231, 72 h, read-out: MDA-MB 231
[1] = biological target: Human recombinant Methionine Aminopeptidase 2 (MetAp2) (Homo sapiens, UniProt P50579); assay: fluorometric H-Met-AMC hydrolysis; format: biochemical
Human recombinant Methionine Aminopeptidase 2 (MetAp2), sequence (P50579 2-478): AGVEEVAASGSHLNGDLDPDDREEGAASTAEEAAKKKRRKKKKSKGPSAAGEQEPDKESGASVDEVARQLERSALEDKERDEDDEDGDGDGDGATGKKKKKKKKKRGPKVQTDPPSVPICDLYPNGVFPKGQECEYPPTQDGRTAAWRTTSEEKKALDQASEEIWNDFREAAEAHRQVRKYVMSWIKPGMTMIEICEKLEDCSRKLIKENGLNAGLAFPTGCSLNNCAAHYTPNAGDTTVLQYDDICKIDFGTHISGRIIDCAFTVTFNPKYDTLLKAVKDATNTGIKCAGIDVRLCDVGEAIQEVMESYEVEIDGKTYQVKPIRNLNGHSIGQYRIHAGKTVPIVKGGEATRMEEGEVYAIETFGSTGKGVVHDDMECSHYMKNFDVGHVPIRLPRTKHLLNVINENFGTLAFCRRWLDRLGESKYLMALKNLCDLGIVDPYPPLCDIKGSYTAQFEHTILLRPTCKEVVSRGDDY

BxPC3 = assay: cells; conditions: Homo sapiens, BXPC-3, 72 h, read-out: BxPC3

IC50 (MIA PaCa)	IC50 (67nR)	IC50 (4T1)	IC50 (MDA-MB 231)	IC50 [1]	IC50 (BxPC3)	Structure (SMILES)
9.63 ± 2.35 µM	10.3 ± 1.45 µM	4.13 ± 1.17 µM	13.8 ± 2.98 µM	> 100 µM	11.7 ± 1.64 µM	O=[N+]([O-])c1ccc(OS(=O)(=O)C(F)(F)F)c2ncccc12 [compound 6]
60.2 ± 1.52 µM	–	25.4 ± 3.1 µM	> 100 µM	92.1 µM	44.1 ± 2.09 µM	O=[N+]([O-])c1ccc(OCOCc2ccccc2)c2ncccc12 [compound 9]
11.5 ± 2.06 µM	16.8 ± 2.74 µM	4.67 ± 1.13 µM	20.4 ± 1.22 µM	–	13.9 ± 1.77 µM	O=[N+]([O-])c1ccc(O)c2ncccc12 [compound 1, 5-nitroquinolin-8-ol]
9.71 ± 2.96 µM	14.4 ± 2.97 µM	2.76 ± 0.21 µM	17.3 ± 1.07 µM	2.86 µM	16.7 ± 1.73 µM	CC(C)[Si](Oc1ccc([N+](=O)[O-])c2cccnc12)(C(C)C)C(C)C [compound 3]
28.2 ± 3.35 µM	–	2.43 ± 1.05 µM	34.7 ± 2.17 µM	21.1 µM	18.1 ± 2.86 µM	C[Si](C)(C)CCOCOc1ccc([N+](=O)[O-])c2cccnc12 [compound 7]
10.4 ± 1.56 µM	15.6 ± 2.21 µM	4.6 ± 2.41 µM	15.9 ± 1.47 µM	3.42 µM	12.8 ± 1.09 µM	CC(C)(C)[Si](Oc1ccc([N+](=O)[O-])c2cccnc12)(c1ccccc1)c1ccccc1 [compound 4]
13.8 ± 0.85 µM	25.2 ± 1.96 µM	4.22 ± 0.32 µM	13.1 ± 1.96 µM	–	25.6 ± 3.35 µM	CS(=O)(=O)Oc1ccc([N+](=O)[O-])c2cccnc12 [compound 5]
10.4 ± 2.26 µM	23.3 ± 1.5 µM	4.92 ± 1.63 µM	19.2 ± 1.52 µM	4.3 µM	15.2 ± 2.01 µM	CC(C)(C)[Si](C)(C)Oc1ccc([N+](=O)[O-])c2cccnc12 [compound 2]
